In patent publication US20060286670A1, “Transplant acceptance inducing cells of monocytic origin and their preparation and use” (BLASTICON BIOTECHNOLOGISCHE FORSCHUNG GMBH, priority 2002, published 2006):

Test system: PHA-stimulated lymphocytes
Assay: Mixed lymphocyte culture of PHA-stimulated lymphocytes and TAIC, 3[H]-thymidine incorporation
Assay type: cell-based, human
Conditions: 2 μmol 1-MT
Method: In order to clarify, whether the inhibitor of the enzyme indolamine-2,3-dioxygenase (IDO) 1-methyltryptophane (1-MT) influences the suppressor function of the TAIC generated in the “Mo” and “Mo+Ly” set ups (see Example 11), a variety of mixed lymphocyte cultures (MLC) with PHA (phytohaemagglutinine) stimulated T-cells in the presence and in the absence of 1-MT were established.
In these mixed lymphocyte cultures 50.000 lymphocytes with 2 μg […] were transferred into the wells of a 96-well-plate, followed by a proliferation period over 144 hours (indicated as “PhaLy”). Lymphocytes only cultivated in medium without addition of PHA were run as a further control (indicated as “Ly”).
In order to determine the proliferation of PHA-stimulated lymphocytes in the different co-cultures, the following 4 set ups were run and examined:
In this arrangement, the amount of the radio activity determined is a measure for the amount of labeled thymidine incorporated into the DNA, and therefore a measure for the proliferation rate of the lymphocytes. The values reported in FIG. 8 correspond to mean values from triple determinations of 3 experiments each with indication of the standard deviation.

Cn1cc(C[C@H](N)C(=O)O)c2ccccc21 [1-MT, 1-methyltryptophane]
influence on the suppressor function of the TAIC: increases the suppressor function of the TAIC synergistically
